These results are taken from patent US10294214B2, “Positive allosteric modulators of human melanocortin-4 receptor” (Vanderbilt University, priority 2016, dated 2019).

In one assay the target is native L cell MC4R (Mus musculus (Mouse), UniProt P56450). In words: Ussing chamber assay, α-MSH inhibition of VIP-elevated Isc in mouse colon mucosa. As to conditions: for Effect of antagonist on α-MSH inhibition of Isc potentiated by 1 μM Example 3: HS014 30 nM, 300 nM BIBO3304 plus 1 μM BIIE0246 in combination; for Effect of antagonist on α-MSH inhibition of Isc potentiated by 1 μM Example 3 / α-MSH response (inhibition of Isc) after pretreatment: α-MSH 300 nM; for Effect of compound alone on basal Isc: basolateral, Example 3 at 200 nM or 1 μM, vs vehicle. The method, then: (§1) FIGS. 2A-2I contain data on the characterization of hMC4R PAMs Examples 1, 2, and 3. FIGS. 2A, 2B, and 2C show structures of Examples 1-3, and the affect of Examples 1-3 on the α-MSH dose-response curve at the hMC4R, as determined using the Lance assay. Insets show the concentration-response effect as a function of the fold shift on the α-MSH concentration response curve. […] After α-MSH responses had waned all tissues received PYY (10 nM) to verify residual Y receptor anti-secretory activity. Basal Isc values are indicated to the left of each trace from an exposed area of 0.14 cm^2. Vertical arrows show the timepoint at which α-MSH Isc responses were recorded. […] Each value is the mean±1 SEM with n values in parentheses. ** P<0.01 using one-way ANOVA with Dunnett's post-test.
Sequence of native L cell MC4R (P56450 whole entry): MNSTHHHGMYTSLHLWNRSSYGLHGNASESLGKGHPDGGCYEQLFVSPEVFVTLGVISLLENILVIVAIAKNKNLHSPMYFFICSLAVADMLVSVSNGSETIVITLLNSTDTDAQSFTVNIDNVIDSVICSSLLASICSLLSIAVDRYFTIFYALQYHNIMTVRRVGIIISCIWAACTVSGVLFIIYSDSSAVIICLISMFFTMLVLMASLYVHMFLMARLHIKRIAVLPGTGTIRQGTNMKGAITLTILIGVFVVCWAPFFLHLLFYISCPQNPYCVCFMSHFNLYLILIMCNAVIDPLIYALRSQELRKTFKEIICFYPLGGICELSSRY
(§2) GI tissue from adult (12-20 week old) male C57BL/6J mice were dissected free of overlying smooth muscle and mucosae placed between 2 halves of Ussing chambers exposing an area of 0.14 cm^2. Mucosae were bathed both sides with Krebs-Henseleit (KH) buffer of following composition (in mM: 117 NaCl, 24.8 NaHCO3, 4.7 KCl, 1.2 MgSO4, 1.2 KH2PO4, 2.5 CaCl2 and 11.1 D-glucose) aerated with 95% O2/5% CO2 (pH 7.4) and voltage-clamped at 0 mV as described in detail previously (Cox et al., 2001; Cox and Tough, 2002). MC4R activity in mouse colonic epithelium was then characterized. Mouse mucosae were pretreated with vehicle or PAM compounds, then with secretagogue, VIP (10 nM, basolateral), and once elevated ISC had reached its peak and was declining at a constant rate, α-MSH was added to the basolateral reservoir to determine responses.
(§3) ISC responses in μA are expressed as the mean±SEM per unit area (cm2). Single comparisons (using GraphPad Prism) were performed using Student's unpaired t-test while multiple comparisons utilized 1-way ANOVA with Dunnett's post test and P≤0.05 were considered statistically significant.

The subject of a further assay is Y receptor. In words: Ussing chamber assay, PYY responses in mouse colon mucosa. As to conditions: PYY 10 nM; for Effect of antagonist on PYY responses: HS014 30 nM, 300 nM BIBO3304 plus 1 μM BIIE0246 in combination; for Effect on PYY responses: Example 3 at 200 nM or 1 μM. The method, then:
as §1, §2, §3

The target of assay [1] is T1, hMC4R (Homo sapiens (Human), UniProt P32245). Description: LANCE cAMP assay, hMC4R PAM. As to conditions: for hMC4R PAM LANCE pEC50 Mean: HEK293 cells stably expressing the hMC4R, α-MSH at an EC20 dose; for Emax: read-out: % of αMSH maximal response. Type of assay: cell-based. The method, then:
Analysis of pharmacological properties of compounds was performed using the LANCE cAMP kit (Perkin Elmer). HEK293 cells stably expressing the hMC4R were treated with PAM compounds at doses indicated, then incubated with an Alexa Fluor 647-labeled antibody in stimulation buffer according to manufacturer's instructions for 30 min at RT. Next, α-MSH was added (at an EC20 dose or at doses indicated for concentration-response curves), and plates were incubated for 15 minutes at RT, followed by the addition of 10 μL of detection mix. Plates were then incubated for 30 minutes at RT and read on a Viewlux (Perkin Elmer) using 618 and 671 nm emission filters. IBMX was not included in the assay.

The subject of another assay is C57BL/6 mice. In words: Inhibition of fast-induced refeeding in the mouse. It counts as in vivo. To be noted: single i.p. dose 5 mg/kg; overnight fasted mice; food intake after two and six hours. Here is the method:
FIG. 4 contains data from assays of inhibition of food intake in the mouse by MC4R PAM Example 3. Nine to ten week old C57BL/6 mice were fasted overnight (15 to 17 hours) and re-feeding was monitored the following day after a single i.p. dose of Example 3 (5 mg/kg) or vehicle (10% Tween 80, 5% DMSO v/v). Normalized food intake (food consumed in grams per 100 grams of body weight) per treatment group is shown in the top graphs after two hours (top left) and six hours (top right) of onset of re-feeding phase. Body weight changes for two and six hours are shown in the bottom left and right panels respectively. p values are noted on each graph and were determined by unpaired t tests. Significance was set to p values <0.05.

In assay [2] the target is T1, hMC4R. In words: pGLO cAMP assay, PAM HTS primary screen. It counts as cell-based. As to conditions: 1 μM of library compound. The method, then:
(§4) Drug screening for identification of hits and initial characterization of MC4R PAM compounds were performed using the pGLO assay, as described previously (Pantel J, et al., (2011) Development of a high throughput screen for allosteric modulators of melanocortin-4 receptor signaling using a real time cAMP assay. Eur J Pharmacol 660:139-147. HEK293 cells stably expressing the hMC4R or the hB2ADR with GloSensor (Promega) were plated at a density of 10,000 to 15,000 cells per well on Poly-D-Lysin coated black optical bottom 384 well plates in MEM supplemented with 2% serum. The next day, cells were loaded with the cAMP Glo reagent at a 2% concentration in CO2-independent media for 2 hours at 37° C. […]
(§5) HEK293 cells stably expressing the hMC4R or the β-adrenergic receptor with the p-Promega pGlo luciferase cAMP reporter were plated at a density of 10,000 to 15,000 cells per well on Poly-D-Lysin coated black optical bottom 384 well plates in MEM supplemented with 2% serum. The next day, cells were loaded with the p-Glo substrate at a 2% concentration in CO2-independent media for 2 hours at 37° C. cAMP concentration in cells were measured as a function of luminescence over time using a Hamamatsu FDSS 6000 plate reader. Basal luminescence were measured for 5 minutes followed by injection of 1 μM of the library compounds. […]
Background: Changes in cAMP serve as a functional read-out for many G protein-coupled receptors.

Assay [3] deals with human β2-adrenergic receptor (Homo sapiens (Human), UniProt P07550). In words: pGLO cAMP assay, counterscreen. It counts as cell-based. As to conditions: Isop EC20. Here is the method:
as §4, §5

Structures are written as SMILES. “Also recorded” adds a separate entry of the source.

T1 sequence (P32245 whole entry): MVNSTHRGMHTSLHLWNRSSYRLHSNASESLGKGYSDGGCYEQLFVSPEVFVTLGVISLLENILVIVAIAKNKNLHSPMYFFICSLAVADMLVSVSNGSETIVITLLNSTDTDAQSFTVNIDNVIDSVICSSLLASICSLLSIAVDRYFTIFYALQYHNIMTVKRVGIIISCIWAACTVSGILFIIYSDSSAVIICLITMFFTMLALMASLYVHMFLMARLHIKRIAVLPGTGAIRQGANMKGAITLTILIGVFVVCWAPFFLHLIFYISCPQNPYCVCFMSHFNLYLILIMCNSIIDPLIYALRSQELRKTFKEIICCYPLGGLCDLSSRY
Sequence of human β2-adrenergic receptor (P07550 whole entry): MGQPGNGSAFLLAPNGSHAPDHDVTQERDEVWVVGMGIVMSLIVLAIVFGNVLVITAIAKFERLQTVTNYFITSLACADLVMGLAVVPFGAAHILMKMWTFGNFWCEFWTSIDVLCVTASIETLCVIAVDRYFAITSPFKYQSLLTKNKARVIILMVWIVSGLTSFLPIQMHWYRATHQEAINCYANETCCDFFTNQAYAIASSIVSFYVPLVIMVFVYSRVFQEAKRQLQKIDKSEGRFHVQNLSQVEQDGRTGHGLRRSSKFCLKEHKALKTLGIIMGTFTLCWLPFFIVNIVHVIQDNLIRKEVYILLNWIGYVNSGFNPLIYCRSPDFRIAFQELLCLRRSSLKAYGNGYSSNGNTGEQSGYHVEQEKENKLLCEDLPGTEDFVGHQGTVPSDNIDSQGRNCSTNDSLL

Consider `NC(=O)NCc1ccc(CNC(=O)[C@@H](CCCN=C(N)N)NC(=O)C(c2ccccc2)c2ccccc2)cc1` [BIBO3304, reference compound], for which, on native L cell MC4R, the “Effect of antagonist on α-MSH inhibition of Isc potentiated by 1 μM Example 3” value is on record as “abolished”. Besides, in the assay on Y receptor, the “Effect of antagonist on PYY responses” value is on record as “predictably abolished”.

For `N=C(N)NCCC[C@H](NC(=O)CC1(CC(=O)N2CCN(C3c4ccccc4NC(=O)c4ccccc43)CC2)CCCC1)C(=O)NCCn1c(=O)n(-c2ccccc2)n(-c2ccccc2)c1=O` (some centres unmarked) [BIIE0246, reference compound], the “Effect of antagonist on α-MSH inhibition of Isc potentiated by 1 μM Example 3” value at native L cell MC4R is “abolished”. Also, the “Effect of antagonist on PYY responses” value in the assay with Y receptor is reported as “predictably abolished”.

A word on the EC50: it is the concentration that produces a half-maximal response. Turning to `CC(C)(C)C1CCN(CC(=O)Nc2c(C(=O)C3CC3)[nH]c3ccccc23)CC1` [Example 1, 2-(4-(tert-butyl)piperidin-1-yl)-N-(2-(cyclopropanecarbonyl)-1H-indol-3-yl)acetamide], the “hMC4R PAM LANCE pEC50 Mean” value at hMC4R [1] came to 6.2. Further, on hMC4R [1] (in vitro characterisation), the EC50 was 398 nM and the Emax is 83%. In addition, at native L cell MC4R (10 μM pretreatment), the “α-MSH response (inhibition of Isc) after pretreatment” value (shortened to “α-MSH response (inhibition of Isc)”) is on record as “potentiated significantly”. Also, at native L cell MC4R, the “Effect of compound alone on basal Isc” value is “not significantly different to vehicle controls”. In addition, the “MC4R PAM activity on α-MSH induced, PYY mediated short circuit current inhibition” value on native L cell MC4R (mouse colonic epithelium) is “exhibited MC4R PAM activity”. The “Effect on PYY responses” value in the assay with Y receptor was “unaffected”.

In general, pEC50 refers to −log10 of the EC50, conventionally taken in molar units. As to `O=C(CN1CCC2(CCCC2)CC1)Nc1c(C(=O)C2CC2)[nH]c2ccccc12` [Example 2, N-(2-(cyclopropanecarbonyl)-1H-indol-3-yl)-2-(8-azaspiro[4.5]decan-8-yl)acetamide], at hMC4R [1], the “hMC4R PAM LANCE pEC50 Mean” value was found to be 6.3. Also, at hMC4R [1] (in vitro characterisation), the pEC50 stood at 6.3 and the Emax was found to be 80%. Further, the “α-MSH response (inhibition of Isc)” value on native L cell MC4R (3 μM pretreatment) is given as “potentiated significantly”. The “Effect of compound alone on basal Isc” value on native L cell MC4R is “not significantly different to vehicle controls”. The “MC4R PAM activity on α-MSH induced, PYY mediated short circuit current inhibition” value on native L cell MC4R (mouse colonic epithelium) is “exhibited MC4R PAM activity”. In addition, in the assay on Y receptor, the “Effect on PYY responses” value is “unaffected”.

Regarding `COC(=O)c1[nH]c2ccccc2c1NC(=O)CN1CCC(C2CCCCC2)CC1` [Example 3, methyl 3-(2-(4-cyclohexylpiperidin-1-yl)acetamido)-1H-indole-2-carboxylate], at hMC4R [1], the “hMC4R PAM LANCE pEC50 Mean” value was found to be 6.7. For the same compound, on hMC4R [1] (in vitro characterisation), the pEC50 turned out to be 6.7 and the Emax was 102%. Further, the “α-MSH response (inhibition of Isc)” value on native L cell MC4R (1 μM pretreatment, vs vehicle controls) is “significantly increased; also recorded: significantly potentiated”. In addition, the “Effect of compound alone on basal Isc” value on native L cell MC4R is “no activity on its own; also recorded: not significantly different from vehicle”. The “MC4R PAM activity on α-MSH induced, PYY mediated short circuit current inhibition” value at native L cell MC4R (mouse colonic epithelium) is reported as “nearly tripled the activity of α-MSH”. Further, the EC50 on native L cell MC4R (mouse colonic epithelium, read-out: EC50 for potentiation of α-MSH induced short circuit current inhibition) is approximately 200 nM. In the assay on Y receptor, the “Effect on PYY responses” value was “did not modulate the activity of PYY; also recorded: unaffected”. In addition, the “Anorexigenic activity, fast-induced refeeding” value in the assay on C57BL/6 mice is “small, but statistically significant anorexigenic activity”.

With `O=C(CN1CCC(c2ccccc2)CC1)Nc1c(C(=O)C2CC2)[nH]c2ccc(N3CCOCC3)cc12` [Example 69], the “hMC4R PAM LANCE pEC50 Mean” value at hMC4R [1] worked out at 6.3.

In the case of `CC(=O)c1[nH]c2ccccc2c1NC(=O)C(C)N1CCC(C2CCCC2)CC1` (centres unmarked) [Example 70], the “hMC4R PAM LANCE pEC50 Mean” value at hMC4R [1] is 6.4.

As for `CC(C(=O)Nc1c(C(=O)C2CC2)[nH]c2ccccc12)N1CCC(C2CCCC2)CC1` (centres unmarked) [Example 71], on hMC4R [1], the “hMC4R PAM LANCE pEC50 Mean” value was determined as 6.4.

In the case of `CC(=O)c1[nH]c2ccncc2c1NC(=O)CN1CCC(C(C)(C)C)CC1` [Example 72], the “hMC4R PAM LANCE pEC50 Mean” value at hMC4R [1] stood at 6.3.

With `O=C(CN1CCN(c2ccccc2)CC1)Nc1c(C(=O)C2CC2)[nH]c2ccncc12` [Example 73], the “hMC4R PAM LANCE pEC50 Mean” value at hMC4R [1] was found to be 6.2.

Take `CC1(C)CCCN(CC(=O)Nc2c(C(=O)C3CC3)[nH]c3ccncc23)C1` [Example 74]: the “hMC4R PAM LANCE pEC50 Mean” value on hMC4R [1] is 6.2.

As to `COC(=O)c1[nH]c2ccc(C)cc2c1NC(=O)CN1CCC(Cc2ccccc2)CC1` [Example 75], on hMC4R [1], the “hMC4R PAM LANCE pEC50 Mean” value is on record as 5.9.

Consider `CC1COCCN1c1ccc2[nH]c(C(=O)C3CC3)c(NC(=O)CN3CCCC(C)(C)C3)c2c1` (centres unmarked) [Example 76], for which the “hMC4R PAM LANCE pEC50 Mean” value at hMC4R [1] was 5.7.

As to `CC(=O)c1[nH]c2ccccc2c1NC(=O)CN1CCC(OC2CCCCC2)CC1` [Example 77], at hMC4R [1], the “hMC4R PAM LANCE pEC50 Mean” value is 5.8.

Take `COC(=O)c1[nH]c2ccc(Cl)cc2c1NC(=O)C(C)N1CCC(Cc2ccccc2)CC1` (centres unmarked) [Example 78]: the “hMC4R PAM LANCE pEC50 Mean” value at hMC4R [1] is 6.

Regarding `COC(=O)c1[nH]c2ccc(Br)cc2c1NC(=O)CN1CCCC(C)(C)C1` [Example 79], the “hMC4R PAM LANCE pEC50 Mean” value on hMC4R [1] worked out at 6.1.

As for `COC(=O)c1[nH]c2ccc(Cl)cc2c1NC(=O)CN1CCCC(C)(C)C1` [Example 80], the “hMC4R PAM LANCE pEC50 Mean” value at hMC4R [1] is recorded as 6.

Turning to `COc1cc(-c2nc(NCc3ccco3)c3ccccc3n2)cc(OC)c1OC` [VUO127431, N-(furan-2-ylmethyl)-2-(3,4,5-trimethoxyphenyl)quinazolin-4-amine], on hMC4R [2], the “Effect on hMC4R signaling (cAMP) with α-MSH EC20” value is “enhanced hMC4R signaling”. In addition, the “Effect on β2-adrenergic-receptor signaling (cAMP)” value in assay [3] is listed as “no significant effect on β2-adrenergic-receptor signaling”.
